Where two headings read alike, the source gives them in different places.
Tests used:
[1] = tested on: RIN5F (Rat Insulinoma) cells; assay: In vitro glucose-dependent insulin secretion (RIN5F cell assay); format: cell-based; settings: 16.7 mM glucose load, mean ± S.D., n = 3
Experimental: After trypsinization, RIN5F cells were seeded at a concentration of 0.2×10^6·cells per well, in 12 well plates.
The supernatant was collected and the insulin amount was measured by ultra sensitive Rat insulin ELISA kit (Crystal Chem, Ill.). The protein was estimated in the supernatant using Bicinchoninic Acid kit, according to the manufacturer's protocol (Sigma Aldrich, Mo.). The total insulin content obtained in Pico-gram (pg) was divided with the total protein (μg) in order to normalize for differences in cell density between wells.

human glucagon receptor = target: T1, human glucagon receptor (Homo sapiens, UniProt P47871); assay: In vitro human glucagon antagonist activity (inhibition of cAMP production), CHO/human glucagon R cells; format: cell-based
T1 construct: The full-length cDNA was cloned in pcDNA3.1(Invitrogen); expressed in transfected cells
T1 sequence (P47871 26-477): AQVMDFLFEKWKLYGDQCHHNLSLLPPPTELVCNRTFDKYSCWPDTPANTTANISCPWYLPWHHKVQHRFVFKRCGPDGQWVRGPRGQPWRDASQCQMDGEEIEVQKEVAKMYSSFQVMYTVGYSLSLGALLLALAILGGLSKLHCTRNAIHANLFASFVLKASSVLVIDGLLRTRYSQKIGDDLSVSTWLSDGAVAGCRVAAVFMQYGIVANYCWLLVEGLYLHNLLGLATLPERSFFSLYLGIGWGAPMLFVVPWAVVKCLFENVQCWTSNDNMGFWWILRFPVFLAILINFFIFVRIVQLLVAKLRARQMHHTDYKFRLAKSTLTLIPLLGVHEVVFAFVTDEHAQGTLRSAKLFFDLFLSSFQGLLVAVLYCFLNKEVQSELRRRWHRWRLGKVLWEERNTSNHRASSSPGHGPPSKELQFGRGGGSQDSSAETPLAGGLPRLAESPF
Experimental: CHO cells were grown in Ham's F12 medium containing L-Glutamine (2 mM), HEPES (25 mM), NaHCO3 (1.1 g/L) and supplemented with newborn Calf Serum (NBCS; 10%), Penicillin (50 U/ml (v/v)) and Streptomycin (50 ug/ml (v/v)). Cells were split every 3 days 1:8.
The full-length cDNA was cloned in pcDNA3.1(Invitrogen). […] Clones expressing the receptor were generated by G418 (800 μg/ml active, Sigma) selection. The stable clones were thereafter maintained at 500 ug/ml (G418). The selected clone was used between passages 9-25 for cAMP assays.
The trypsin was inactivated using Ham's F12 medium containing 10% NBCS and the cells were suspended in 2 ml of complete medium. […] The medium was aspirated off from the 12 well plate and the cells were washed once using Ham's F12 (plain). […] After the incubation; the medium was removed and cells were washed once with plain Ham's F12. Subsequently, the cells were lysed by adding 500 ul of ice cold 0.1 N HCl to each well and shaking for 30 minutes at 200 rpm. The cells were then scrapped, the lysate was collected in micro centrifuge tubes and centrifuged at 12000 rpm for 10 min to remove the debris. 300 ul of supernatant from each micro-centrifuge tube was then removed into a glass tube and dried under N2 for 30 min, for cAMP estimation. The total cAMP was estimated from the sample according to the manufacturer's protocol using Cyclic AMP immunoassay kit (R&D systems, Minneapolis: MN). The remaining supernatant is used to determine the protein concentration using micro BCA (Sigma). Data is calculated as percent of control (Vehicle: water) and expressed as Mean+SD.

DPP IV = DPP IV (Homo sapiens, UniProt P27487); assay: Stability against DPP IV enzyme; format: in vitro ADME; settings: 2 μM, 37° C.
DPP IV, sequence (P27487 whole entry, species assumed): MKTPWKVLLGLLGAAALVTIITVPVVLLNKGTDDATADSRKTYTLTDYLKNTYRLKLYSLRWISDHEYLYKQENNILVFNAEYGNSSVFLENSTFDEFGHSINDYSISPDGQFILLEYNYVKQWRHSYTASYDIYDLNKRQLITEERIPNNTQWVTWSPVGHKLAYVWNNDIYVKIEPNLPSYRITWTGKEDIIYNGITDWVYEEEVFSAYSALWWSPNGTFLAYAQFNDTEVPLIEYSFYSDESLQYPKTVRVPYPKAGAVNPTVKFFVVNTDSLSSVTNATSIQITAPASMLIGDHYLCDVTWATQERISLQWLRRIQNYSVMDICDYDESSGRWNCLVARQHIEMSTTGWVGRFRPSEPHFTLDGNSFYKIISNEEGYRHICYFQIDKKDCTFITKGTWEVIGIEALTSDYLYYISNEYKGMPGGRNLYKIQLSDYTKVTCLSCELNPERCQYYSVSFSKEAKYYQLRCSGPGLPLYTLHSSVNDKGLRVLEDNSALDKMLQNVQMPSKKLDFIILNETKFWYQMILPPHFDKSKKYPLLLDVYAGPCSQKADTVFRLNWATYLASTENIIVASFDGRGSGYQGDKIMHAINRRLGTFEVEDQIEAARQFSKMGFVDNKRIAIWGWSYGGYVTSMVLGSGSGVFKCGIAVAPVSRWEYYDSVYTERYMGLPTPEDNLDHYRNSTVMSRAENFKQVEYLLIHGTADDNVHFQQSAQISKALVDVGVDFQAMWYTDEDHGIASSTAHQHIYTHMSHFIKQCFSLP
Method in brief: (§1)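 UV detection at 206 nm tracked the remaining material after HPLC separation at a flow of 1 mL/min in TFA/H2O. Incubations had been ended by adding aqueous TFA (10%, v/v), and eluted peaks were identified by ESI-MS.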

[2] = Stability in human plasma; format: in vitro ADME; settings: 2 μM, 37° C.
Method in brief: as §1

[3] = Stability in simulated gastric fluid; format: in vitro ADME; settings: 37° C., pH 1.5, pepsin; for half-life at 2 μM: simulated gastric fluid with pepsin
Method in brief: as §1

[4] = Stability in simulated intestinal fluid; format: in vitro ADME; settings: 37° C.; for half-life at 2 μM: simulated intestinal fluid, pH 7.5, read-out: half-life (t1/2) in simulated intestinal fluid
Method in brief: as §1

[5] = Stability against liver microsomes; format: in vitro ADME, human; settings: for half-life at 2 μM: human, human liver microsomes, pH 7.8, 37° C., read-out: half-life (t1/2) with liver microsomes
Method in brief: as §1

Human GLP-1 receptor = target: T2, Human GLP-1 receptor (Homo sapiens, UniProt P43220); format: cell-based
T2 construct: The full-length cDNA was cloned in pcDNA3.1(+); expressed in transfected cells
T2 sequence (P43220 24-463): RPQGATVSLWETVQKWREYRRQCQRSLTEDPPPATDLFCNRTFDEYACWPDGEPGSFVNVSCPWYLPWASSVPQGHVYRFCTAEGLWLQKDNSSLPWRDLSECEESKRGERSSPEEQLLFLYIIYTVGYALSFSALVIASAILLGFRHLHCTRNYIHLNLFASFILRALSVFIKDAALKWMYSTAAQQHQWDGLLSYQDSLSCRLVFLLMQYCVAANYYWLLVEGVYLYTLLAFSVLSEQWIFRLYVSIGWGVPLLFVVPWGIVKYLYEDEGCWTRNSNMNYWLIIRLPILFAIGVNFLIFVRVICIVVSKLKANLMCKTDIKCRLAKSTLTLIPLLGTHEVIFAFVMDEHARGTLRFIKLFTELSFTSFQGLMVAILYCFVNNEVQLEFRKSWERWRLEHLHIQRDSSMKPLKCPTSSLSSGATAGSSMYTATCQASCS
Method in brief: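 Stably transfected CHO cells expressing human GLP-1R, passages 9-25, exposed to compounds for 30 min at 37 °C. Lysed in ice-cold 0.1 N HCl; total cAMP by immunoassay, protein by micro BCA; expressed as percent of water vehicle control, mean±SD.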

[6] = 1 nM test compound (fourth concentration column, between 100 nM and 10 μM) with saturated concentration of glucagon peptide
[7] = 1 nM test compound with saturated concentration of glucagon peptide
[8] = 10 nM test compound with saturated concentration of glucagon peptide
[9] = 100 nM test compound with saturated concentration of glucagon peptide
[10] = 10 μM test compound with saturated concentration of glucagon peptide
[11] = read-out: half-life (t1/2) in simulated gastric fluid

SMILES | Insulin secretion ([1]; 0.1 nM test compd.) | Insulin secretion ([1]; 1 nM test compd.) | Insulin secretion ([1]; 10 nM test compd.) | Human Glucagon receptor antagonistic activity, inhibition of cAMP production of Glucagon peptide (human glucagon receptor; [6]) | Human Glucagon receptor antagonistic activity, inhibition of cAMP production of Glucagon peptide (human glucagon receptor; [7]) | Human Glucagon receptor antagonistic activity, inhibition of cAMP production of Glucagon peptide (human glucagon receptor; [8]) | Human Glucagon receptor antagonistic activity, inhibition of cAMP production of Glucagon peptide (human glucagon receptor; [9]) | Human Glucagon receptor antagonistic activity, inhibition of cAMP production of Glucagon peptide (human glucagon receptor; [10]) | % degradation in 24 h when incubated with DPP-IV enzyme (DPP IV) | half-life (t1/2) in human plasma [2] | % degradation in 24 h when incubated with human plasma [2] | % degradation in 24 h when incubated with simulated gastric fluid ([3]; 2 μM) | half-life at 2 μM [3, 11] | % degradation in 24 h when incubated with simulated intestinal fluid ([4]; 2 μM, pH 7.5) | half-life at 2 μM [4] | % degradation in 24 h when incubated with liver microsomes ([5]; 2 μM, 37° C.) | half-life at 2 μM [5] | further results
CCc1cc(OC)ccc1-c1ccc(CC(NC(=O)[C@H](CC(=O)O)NC(=O)[C@H](CO)NC(=O)[C@@H](NC(=O)[C@H](Cc2ccccc2)NC(=O)[C@@H](NC(=O)CNC(=O)[C@H](CCC(N)=O)NC(=O)[C@H](CO)NC(=O)[C@@H](N)Cc2c[nH]cn2)[C@@H](C)O)[C@@H](C)O)C(=O)NC(Cc2ccc(-c3ccccc3C)cc2)C(N)=O)cc1 (single isomer, unassigned) [compound 5] | 12.1 ± 0.52 pg/µg/h | 14.1 ± 0.16 pg/µg/h | 28.0 ± 0.36 pg/µg/h | 14 ± 0.03 pmol/ml/μg prt | 20 ± 0.06 pmol/ml/μg prt | 18 ± 0.09 pmol/ml/μg prt | 16 ± 0.01 pmol/ml/μg prt | 12 ± 0.01 pmol/ml/μg prt | 76% | (9) h | 78% | 100% | 30 min | 100% | 30 min | 100% | 30 min | –
CCc1cc(OC)ccc1-c1ccc(CC(NC(=O)[C@H](CC(=O)O)NC(=O)[C@H](CO)NC(=O)[C@@H](NC(=O)[C@H](Cc2ccccc2)NC(=O)[C@@H](NC(=O)CNC(=O)[C@H](CCC(N)=O)NC(=O)[C@H](CO)NC(=O)[C@@H](N)Cc2c[nH]cn2)[C@@H](C)O)[C@@H](C)O)C(=O)NC(Cc2ccc(-c3ccccc3C)nc2)C(N)=O)cc1 (single isomer, unassigned) [compound 6] | 12.4 ± 0.26 pg/µg/h | 15.2 ± 0.33 pg/µg/h | 29.6 ± 0.51 pg/µg/h | – | – | – | – | – | 75% | (9) h | 77% | 100% | 30 min | 100% | 30 min | 100% | 30 min | –
CCc1cc(OC)ccc1-c1ccc(CC(NC(=O)[C@H](CC(=O)O)NC(=O)[C@H](CO)NC(=O)[C@@H](NC(=O)[C@H](Cc2ccccc2)NC(=O)[C@@H](NC(=O)CNC(=O)[C@H](CCC(N)=O)NC(=O)[C@H](CO)NC(=O)[C@@H](N)Cc2c[nH]cn2)[C@@H](C)O)[C@@H](C)O)C(=O)NC(Cc2ccc(-c3ccccc3F)cc2)C(N)=O)cc1 (single isomer, unassigned) [compound 7] | 11.1 ± 0.12 pg/µg/h | 13.1 ± 0.13 pg/µg/h | 19.0 ± 0.16 pg/µg/h | 0 pmol/ml/μg prt | 6 ± 0.02 pmol/ml/μg prt | 5 ± 0.03 pmol/ml/μg prt | 2 ± 0.61 pmol/ml/μg prt | 0 pmol/ml/μg prt | 77% | (9) h | 80% | 100% | 30 min | 100% | 30 min | 100% | 30 min | –
CCc1cc(OC)ccc1-c1ccc(CC(NC(=O)[C@H](CC(=O)O)NC(=O)[C@H](CO)NC(=O)[C@@H](NC(=O)[C@H](Cc2ccccc2)NC(=O)[C@@H](NC(=O)CNC(=O)[C@H](CCC(N)=O)NC(=O)[C@H](CO)NC(=O)[C@@H](N)Cc2c[nH]cn2)[C@@H](C)O)[C@@H](C)O)C(=O)NC(Cc2ccc(-c3ccccc3C(F)(F)F)cc2)C(N)=O)cc1 (single isomer, unassigned) [compound 8] | 12.6 ± 0.20 pg/µg/h | 15.9 ± 0.31 pg/µg/h | 28.4 ± 0.11 pg/µg/h | 0 pmol/ml/μg prt | 4 ± 0.01 pmol/ml/μg prt | 2 ± 0.17 pmol/ml/μg prt | 0 pmol/ml/μg prt | 0 pmol/ml/μg prt | 76% | (9) h | 78% | 100% | 30 min | 100% | 30 min | 100% | 30 min | –
CCc1cc(OC)ccc1-c1ccc(CC(NC(=O)[C@H](CC(=O)O)NC(=O)[C@H](CO)NC(=O)[C@@H](NC(=O)C(C)(Cc2ccccc2F)NC(=O)[C@@H](NC(=O)CNC(=O)[C@H](CCC(N)=O)NC(=O)C2(NC(=O)[C@@H](N)Cc3c[nH]cn3)CC2)[C@@H](C)O)[C@@H](C)O)C(=O)NC(Cc2ccc(-c3ccccc3C(F)(F)F)cc2)C(N)=O)cc1 (single isomer, unassigned) [compound 36] | – | – | – | – | – | – | – | – | 00% | – | 00% | 00% | – | 00% | – | 35% | – | Human GLP-1 R activity (cAMP release), % activity with respect to control (Human GLP-1 receptor; 1 nM test compound): 96 ± 0.09%; Human GLP-1 R activity (cAMP release), % activity with respect to control (Human GLP-1 receptor; 10 nM test compound): 99 ± 0.07%; Human GLP-1 R activity (cAMP release), % activity with respect to control (Human GLP-1 receptor; 100 nM test compound): 99 ± 0.04%; Human GLP-1 R activity (cAMP release), % activity with respect to control (Human GLP-1 receptor; 1 μM test compound): 99 ± 0.01%; Human GLP-1 R activity (cAMP release), % activity with respect to control (Human GLP-1 receptor; 10 μM test compound): 99 ± 0.08%; half-life (DPP IV; read-out: half-life (t1/2) with DPP-IV enzyme): > 1440 min; half-life ([2]; human, plasma, read-out: half-life (t1/2) in human plasma): > 1440 min; half-life ([3]; simulated gi fluid, 2 μM, read-out: half-life (t1/2) in simulated gastric fluid): > 1440 min; half-life ([4]; simulated gi fluid, 2 μM, pH 7.5, read-out: half-life (t1/2) in simulated intestinal fluid): > 1440 min; half-life (t1/2) with liver microsomes ([5]; 2 μM, 37° C.): (5) h

Source: patent US8841413B2, “Antidiabetic compounds” (Cadila Healthcare Limited, priority 2006, dated 2014)
